Results from article PMC11530593, “Structural mechanism of human HCN1 hyperpolarization-activated channel inhibition by ivabradine” (The Journal of Biological Chemistry, 2024).
Changes are numbered by the printed parent chain.

Assays:
[1] = parameters: method as in PMID 16936474; conditions: cited from earlier work
[2] = biological target: T1, HCN1 mutant F143A (Homo sapiens, UniProt O60741, F143A); assay: Whole-cell patch-clamp, Ih inhibition, HCN1 mutant; type: cell-based
T1 construct: Full-length WT or mutant human HCN1 were cloned into the pcDNA3.1 vector; expressed in transfected cells; host or cells: HeLa cells, pcDNA3.1 vector, transient lipofection
T1 sequence (O60741 1-890 F143A): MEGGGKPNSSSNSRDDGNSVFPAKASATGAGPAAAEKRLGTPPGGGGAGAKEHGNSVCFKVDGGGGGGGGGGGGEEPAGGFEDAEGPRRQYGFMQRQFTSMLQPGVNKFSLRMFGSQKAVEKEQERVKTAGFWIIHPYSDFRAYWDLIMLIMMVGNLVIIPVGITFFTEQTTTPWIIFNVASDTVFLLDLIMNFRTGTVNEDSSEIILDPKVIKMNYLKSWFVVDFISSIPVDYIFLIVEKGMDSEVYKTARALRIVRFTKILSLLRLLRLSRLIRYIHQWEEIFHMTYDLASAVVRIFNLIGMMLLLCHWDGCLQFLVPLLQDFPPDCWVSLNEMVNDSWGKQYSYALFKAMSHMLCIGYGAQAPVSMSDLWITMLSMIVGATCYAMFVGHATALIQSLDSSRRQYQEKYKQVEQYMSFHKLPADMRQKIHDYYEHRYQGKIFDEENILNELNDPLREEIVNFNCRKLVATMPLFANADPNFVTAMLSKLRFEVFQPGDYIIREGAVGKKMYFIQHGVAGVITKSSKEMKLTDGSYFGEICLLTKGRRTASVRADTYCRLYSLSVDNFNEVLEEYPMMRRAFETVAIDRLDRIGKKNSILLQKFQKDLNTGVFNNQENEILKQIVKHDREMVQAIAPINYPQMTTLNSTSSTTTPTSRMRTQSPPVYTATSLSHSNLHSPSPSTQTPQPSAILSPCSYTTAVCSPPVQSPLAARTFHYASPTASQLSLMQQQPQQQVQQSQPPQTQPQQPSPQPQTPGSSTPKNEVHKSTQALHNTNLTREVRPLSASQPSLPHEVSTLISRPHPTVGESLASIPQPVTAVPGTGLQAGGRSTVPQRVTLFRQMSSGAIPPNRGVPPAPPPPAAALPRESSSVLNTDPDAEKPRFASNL
Experimental: (§1) To elucidate the contribution of these residues to the inhibitory effect of ivabradine, we introduced mutations in ivabradine-interacting residues, converting them into alanines (Fig. 2F).
(§2) Full-length WT or mutant human HCN1 were cloned into the pcDNA3.1 vector for electrophysiological experiments. HeLa cells (from Thermo Fisher Scientific) cultured in Dulbecco's modified Eagle's medium (from Solarbio Life Science) + 10% fetal bovine serum (from ExCell Bio) at 37 °C were transiently transfected using lipofection, and whole-cell patch-clamp recordings were obtained using the Axon 200B amplifier (Molecular Devices) and clampex software (https://www.moleculardevices.com/products/axon-patch-clamp-system/acquisition-and-analysis-software/pclamp-software-suite), 36 to 48 h posttransfection. The extracellular solution contained 110 mM NaCl, 0.5 mM MgCl2, 1.8 mM CaCl2, 5 mM Hepes, 30 mM KCl, and pH was adjusted to 7.4 with NaOH, while the pipette solution contained 130 mM KCl, 10 mM NaCl, 0.5 mM MgCl2, 1 mM EGTA, 5 mM Hepes, and pH was adjusted to 7.4 with KOH. The recordings were performed at room temperature, voltage-clamp mode, and filtered at 1 kHz. The sampling frequency was 10 kHz, and the series resistance was limited to 5 MΩ. To elicit channel currents, step pulses of 3 s duration ranging from −180 mV to −30 mV were applied, followed by a step to −180 mV lasting 1.25 s. The tail currents evoked by the second step were used to determine the voltage-dependent activation curves and calculate the midpoint of activation potential (V1/2). The half maximal inhibitory concentration (IC50) of drugs was determined by recording currents at a pulse of −140 mV and analyzing current amplitudes at varying drug concentrations. The IC50 value was calculated using the Hill equation.

[3] = biological target: T2, HCN1 mutant W281A (Homo sapiens, UniProt O60741, W281A); assay: Whole-cell patch-clamp, Ih inhibition, HCN1 mutant; type: cell-based; conditions: electrophysiological recordings, read-out: IC50 (Fig. 2F)
T2 construct: Full-length WT or mutant human HCN1 were cloned into the pcDNA3.1 vector; expressed in transfected cells; host or cells: HeLa cells, pcDNA3.1 vector, transient lipofection
T2 sequence (O60741 1-890 W281A): T1 sequence (O60741 1-890 F143A) with A143F, W281A
Experimental: as §1, §2

[4] = system: absence seizures; parameters: method as in PMID 34018186; conditions: coadministration with P-glycoprotein inhibitor elacridar; cited from earlier work

Q: With `COc1cc2c(cc1OC)CC(=O)N(CCCN(C)C[C@H]1Cc3cc(OC)c(OC)cc31)CC2` [ivabradine] as the compound, how does the “ability to penetrate the blood-brain barrier” value [1] read?
A: poor

Q: And the IC50 ([2]; F143A mutant, electrophysiological recordings, read-out: IC50 (Fig. 2F))?
A: 32.9 µM

Q: What about the “change in potency by mutation” value ([2]; F143A versus WT) of the same compound?
A: dramatic decrease

Q: What about the IC50 [3] of the same compound?
A: 17.4 µM

Q: What about the “effect on absence seizures” value [4] of the same compound?
A: significantly and persistently reducing absence seizures
